Experimental data taken from patent US10138282B2, “Peptide antagonist of LL-37” (INDIANA UNIVERSITY RESEARCH AND TECHNOLOGY CORPORATION, priority 2014, dated 2018).
Entries after “also recorded” stand apart in the source; their conditions may differ.

What was measured:
in vitro = type: cell-based; conditions: human, Half-life of LL-37 in cells
Experimental: Acidification of endosomes can activate cathepsins that can cleave TLR3, 7, and 9 and increase signaling. We examined whether LL-37 would be subject to proteolysis, possibly by cathepsins. BEAS-2B cells were treated with LL-37 in the absence or presence of poly(I:C) for 15 min, then washed with phosphate-buffered saline and incubated with fresh medium. The cells were harvested over time, lysed and subjected to Western blot analysis. LL-37 accumulation decreased over time, with an estimated half-life of 1 h (FIG. 4A, 4B). Cells treated with ammonium chloride or the cathepsin inhibitor Z-FA-FMK had half-lives in excess of 12 h (FIG. 4A, 4B).

Reovirus dsRNA, Reo S4 = test: IL-6 production in BEAS-2B cells in the presence of Reovirus dsRNA Reo S4; type: cell-based, human
Experimental: (§1) IL-6 production was quantified by ELISA using the OptEIA™ kit (BD Biosciences). A typical assay used 2×10^4 BEAS-2B cells/well grown for 24 h in flat bottom 96-well plates. Poly(I:C) was added to a final concentration of 0.13 μg/ml. Antimicrobial peptides were added to the cell culture medium to a final concentration of 3 μM unless specified otherwise. All ELISA results shown were performed in triplicate and in at least three independent experiments.
Herein, we analyzed the LL-37 orthologs from Rhesus monkeys, pig, sheep, guinea pigs, rabbit, as well as mouse (FIG. 14A). All peptides were chemically synthesized and assayed for the induction of inflammatory cytokine IL-6 in the presence of the double-stranded RNA mimic, poly(I:C) or the Reovirus dsRNA, Reo S4 (FIGS. 14B and 14C). […] Importantly, all LL-37 orthologs tested had the ability to reduce IL-6 production in response to LPS (FIG. 14E).

TLR3 signaling = test: IL-6 production (ELISA) in BEAS-2B cells induced with poly(I:C); type: cell-based, human
Experimental: as §1
(§2) To better define how residues in LL-37 contribute to function, several variants derived from LL-37 were tested for: 1) repression of TLR4 signaling by LPS, 2) enhancement of TLR3 signaling by poly(I:C), and 3) binding to LL-37. Signaling by TLR3 and TLR4 were monitored using ELISA to detect IL-6 secreted into the medium of BEAS-2B cells.

Toll-like receptor 9 = test: IL-6 production in BEAS-2B cells in the presence of ssDNA ligand ODN; type: cell-based, human
[1] = test system: LL-37 enhancement of TLR3 signaling; test: Antagonism of LL-37/poly(I:C)-enhanced IL-6 production in BEAS-2B cells; type: cell-based, human
Experimental: as §1
We examined whether LL-29 could affect the enhancement of TLR3 signaling by WT LL-37/poly(I:C). An increasing amount of LL-29 along with a constant amount of LL-37/poly(I:C) was used to assess IL-6 production in BEAS-2B cells. […] That is, LL-29 abrogated LL-37's ability to enhance TLR3 signaling. That is, LL-29 is an example of a peptide antagonist of LL-37 function.

[2] = Dynamic light scatter spectroscopy, hydrodynamic radius; type: physicochemical
Experimental: The hydrodynamic radii of LL-37 and other peptides were monitored by a Zetasizer Nano-S instrument (Malvern Instruments). All measurements were taken with 1 μM of peptide dissolved in phosphate buffer adjusted to the desired pH at 22° C.

TLR4 signaling = test: IL-6 production (ELISA) in BEAS-2B cells induced with LPS; type: cell-based, human
Experimental: as §1, §2

TLR3 = test: Confocal microscopy, co-localization with TLR3 in BEAS-2B cells; type: cell-based, human
Experimental: Cells were grown on poly-L-lysine coated coverslips to 60% confluency. After 1 h incubation with fluorescently-labeled peptides in the absence or presence of poly(I:C), the cells were washed with PBS and fixed with 4% paraformaldehyde for 15 min at room temperature. The cells were again washed with PBS and mounted on glass slides with anti-fade mounting medium and DAPI (Life Technology), then dried overnight in the dark. Micrographs were acquired with a Leica TCS SP5 confocal inverted-base microscope with a 63× oil objective. Images were analyzed by Leica LAS AF and Image J software. Colocalization of fluorophores was quantified using the Image J plug-in tool JACoP (16).
We examined whether it could prevent the trafficking of LL-37/poly(I:C) to endosomes that harbor TLR3. Confocal microscopy was used to examine the effect of LL-29 on the colocalization of LL-37/poly(I:C) with TLR3 in BEAS-2B cells.

[3] = test system: Escherichia coli ATCC 25922; test: MIC assay, broth microdilution (CLSI); type: cell-based; conditions: E. coli ATCC 25922
Experimental: MIC assays were performed according to protocols for broth microdilution according to the Clinical Laboratory Standards Institute (CLSI, 2015. Methods for Dilution Antimicrobial susceptibility tests for bacterial that grow aerobically; Approved standard—tenth edition).

f-LL37 = target: T1, f-LL37 (Homo sapiens, UniProt P49913); test: Fluorescence polarization, interaction of peptides with fluorescein-labeled LL-37; type: binding
T1 sequence (P49913 134-170 limits assumed): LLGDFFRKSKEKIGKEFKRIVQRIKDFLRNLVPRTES
Experimental: (§3) Peptide binding to poly(I:C) was analyzed by monitoring fluorescence polarization using the Synergy H1 microplate reader (BioTek). Fluorescein-labeled LL-37 was titrated to a 100 μL solution containing poly(I:C) and phosphate buffers at different pHs. Interactions between LL-37 and other peptides were analyzed using LL-37 labeled at the N-terminus with fluorescein (0.1 μM), and peptides were titrated from 1 nM to 1000 nM in phosphate buffer at pH 7.0. Interaction between poly(I:C) and different peptides was determined by titrating fluorescein-labeled poly(I:C) (0.1 μM) with peptides added to final concentrations of 10 to 500 nM in phosphate buffer at pH 7.4. All polarization assays were performed in triplicate.

FPRL-1 receptor = target: T2, FPRL-1 receptor (Homo sapiens, UniProt P25090); test: IL-6 production in BEAS-2B cells knocked down with siRNA (FPRL-1, EGFR, control); type: cell-based
T2 construct: a human lung epithelial cell line that expresses endogenous FPRL-1; endogenous in cells; host or cells: BEAS-2B
T2 sequence (P25090 1-351): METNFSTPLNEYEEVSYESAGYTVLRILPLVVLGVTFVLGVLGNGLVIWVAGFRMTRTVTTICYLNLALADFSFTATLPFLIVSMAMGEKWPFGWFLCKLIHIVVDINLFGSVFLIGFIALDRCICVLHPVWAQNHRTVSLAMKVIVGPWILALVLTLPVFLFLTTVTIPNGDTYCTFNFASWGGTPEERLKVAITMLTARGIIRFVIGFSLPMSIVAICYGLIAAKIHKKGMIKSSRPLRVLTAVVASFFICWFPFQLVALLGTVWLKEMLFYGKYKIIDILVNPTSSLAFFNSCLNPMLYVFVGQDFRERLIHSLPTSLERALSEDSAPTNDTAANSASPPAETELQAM
Experimental: BEAS-2B cells were seeded at 2×10^6 cells per 6-well plate for 6 h prior to transfection with 30 nM of a pool of three siRNAs from Santa Cruz Biotechnology. Transfections were done using Lipofectamine 2000.
Cells were grown on poly-L-lysine (Life Technologies). The level of target mRNA was analyzed using qRT-PCR and normalized to the levels of GAPDH mRNA. The sequences of the primers will be made available upon request. Poly(I:C) was added 48 h after siRNA transfection and IL-6 levels in the culture media were collected 24 h later.
LL-37's enhancement of TLR3 signaling required trafficking of LL-37/poly(:C) to endosomes via the FPRL-1 receptor. Therefore, we examined whether LL-29 used the FPRL-1 receptor to enter cells. siRNA was used to knock down the expression of either FPRL-1, EGFR, or TLR3. […] Co-localization of fLL-37 and rpIC was reduced to less than a third of the control. […] Knockdowns performed with siRNAs to either a nonspecific control or EGFR had no effect on the enhancement of IL-6 production.
Will LL-29 affect the use of the FPRL-1 receptor by the LL-37/poly(I:C) complex? BEAS-2B cells knocked down for FPRL-1 were treated with LL-37 along with additional concentrations of LL-37, Pentamide, LL-29, Peptide A, or LL8-37 (FIG. 6C). Signaling by TLR3 was determined by the amount of IL-6 secreted in the cell culture media. A control siRNA had no effect on WT LL-37/poly(I:C) enhancement of IL-6 production.
LL-37 uses the Formyl peptide receptor-like 1 (FPRL-1) receptor to deliver nucleic acids into endosomes, where activation of the Toll-like receptors that recognize nucleic acids takes place (Singh et al., 2014). We sought to determine whether the LL-37 orthologs from other mammals could also use the FPRL-1 in the human BEAS-2B cells to deliver dsRNA. BEAS-2B cells were treated with poly(I:C) along with the peptides and the peptides from pig, sheep, rabbit, and mouse had reduced ability to use the FPRL-1 to activate IL-6 production.

poly(I:C) = test: Fluorescence polarization, peptide binding to poly(I:C)
Experimental: as §3
LL-37 accompanies dsRNA to endosomes containing TLR3. However, it is unknown whether LL-37 will release the dsRNA in endosomes. Johansson et al. (1998) have previously determined that a neutral pH is required for the activity of LL-37. We seek to determine whether LL-37 binding to dsRNA can be affected by pH.

For `CC[C@H](C)[C@H](NC(=O)[C@H](CCCCN)NC(=O)[C@H](CCC(=O)O)NC(=O)[C@H](CCCCN)NC(=O)[C@H](CO)NC(=O)[C@H](CCCCN)NC(=O)[C@H](CCCNC(=N)N)NC(=O)[C@H](Cc1ccccc1)NC(=O)[C@H](Cc1ccccc1)NC(=O)[C@H](CC(=O)O)NC(=O)CNC(=O)[C@H](CC(C)C)NC(=O)[C@@H](N)CC(C)C)C(=O)NCC(=O)N[C@@H](CCCCN)C(=O)N[C@@H](CCC(=O)O)C(=O)N[C@@H](Cc1ccccc1)C(=O)N[C@@H](CCCCN)C(=O)N[C@@H](CCCNC(=N)N)C(=O)N[C@H](C(=O)N[C@H](C(=O)N[C@@H](CCC(N)=O)C(=O)N[C@@H](CCCNC(=N)N)C(=O)N[C@H](C(=O)N[C@@H](CCCCN)C(=O)N[C@@H](CC(=O)O)C(=O)N[C@@H](Cc1ccccc1)C(=O)N[C@@H](CC(C)C)C(=O)N[C@@H](CCCNC(=N)N)C(=O)N[C@@H](CC(N)=O)C(=O)N[C@@H](CC(C)C)C(=O)N[C@H](C(=O)N1CCC[C@H]1C(=O)N[C@@H](CCCNC(=N)N)C(=O)N[C@H](C(=O)N[C@@H](CCC(=O)O)C(=O)N[C@@H](CO)C(=O)O)[C@@H](C)O)C(C)C)[C@@H](C)CC)C(C)C)[C@@H](C)CC` [LL-37], which half-life (in vitro) is on record?
The half-life was roughly 1 h.

What about the half-life (in vitro; cells or culture medium) of the same compound?
Its half-life is roughly 1 h.

With “CAP-18: LL-37 ortholog from rabbit, SEQ ID NO: 24 (GLRKRLRKFRNKIKEKLKKIGQKIQGLLPKLAPRTDY; (1)..(37) Rabbit CAP-18)” as the compound, how does the “Enhancement of IL-6 production / signaling by Reo S4, in words” value (Reovirus dsRNA, Reo S4) read?
The value was “failed to enhance signaling”.

And the “Enhancement of TLR3 signaling / poly(I:C)-induced IL-6, in words” value (TLR3 signaling; BEAS-2B cells)?
Its value is “failed to enhance signaling”.

And the “Induction of signaling by the ssDNA ligand for Toll-like receptor 9, in words” value (Toll-like receptor 9)?
Its value is “failed to induce signaling”.

What does the source list for “LLGDFFRKSKEKIGKEFKRIVQRIKDFLR ((1)..(29) LL29; listed as Homo sapiens) [LL-29]”?
IL-6 production with LL-37/poly(I:C) at four molar excess of peptide, in words ([1]; four molar excess of LL-29 relative to LL-37): comparable to the level observed in the absence of LL-37; Antagonism of LL-37 enhancement of TLR3 signaling (IL-6), in words ([1]; peptide added with LL-37/poly(I:C), BEAS-2B cells): reduced the enhancement of TLR3 signaling by LL-37 in a concentration-dependent manner; Hydrodynamic radius (nm) pH 5.8 ([2]; 1.0 μM peptide, phosphate buffer pH 5.8): 8 nm; Hydrodynamic radius (nm) pH 7.4 ([2]; 1.0 μM peptide, phosphate buffer pH 7.4): 1106 nm; pH-dependent dissociation of peptide particles, in words ([2]; acidification of phosphate buffer): readily dissociated into nanometer-sized particles; also recorded: dissociated as a function of pH; Suppression of TLR4 signaling / LPS-induced IL-6, in words (TLR4 signaling; BEAS-2B cells): retained the ability to suppress TLR4 signaling in response to LPS; IL-6 production (%) LPS-depend. (TLR4 signaling; BEAS-2B cells induced with 1.0 μg/ml of LPS, LL-37 100): 143 ± 18%; IL-6 production in response to LPS, % of the control level without either of the two peptides (TLR4 signaling; four molar excess of LL-29 to LL-37, BEAS-2B cells): 64%; Effect of added peptide on co-localization of fLL-37 and TLR3, in words (TLR3; added to fLL-37 and poly(I:C)): reduced the co-localization between fLL-37 and TLR3; MIC assay result, peptide without antibiotic ([3]; peptide 10 μg/ml, antibiotic: None): growth; MIC (μg/ml) of Doxorubicin in the presence of peptide ([3]; peptide final conc. 10 μg/ml): ≤0.06 µg/mL; MIC (μg/ml) of Kanamycin in the presence of peptide ([3]; peptide final conc. 10 μg/ml): ≤0.5 µg/mL; MIC (μg/ml) of Trimethoprim in the presence of peptide ([3]; peptide final conc. 10 μg/ml): ≤0.06 µg/mL; Improvement of the MIC of antibiotics by peptide ([3]; with doxorubicin, kanamycin, trimethoprim): at least 4 fold; IL-6 production (%) poly(I:C)-depend. (TLR3 signaling; BEAS-2B cells induced with 130 ng/ml of poly(I:C), LL-37 100): 47 ± 3%; Interaction with fLL-37, in words (f-LL37): interacted with fLL-37 to the same degree as LL-37; also recorded: comparable ability to interact with fLL-37; IL-6 production, peptide with poly(I:C), in words (FPRL-1 receptor; knockdown of either FPRL-1 or EGFR): did not enhance IL-6 production; IL-6 production, peptide added along with LL-37 and poly(I:C), in words (FPRL-1 receptor; siRNA to FPRL-1 or nonspecific control): resulted in a reduction in IL-6 levels

Which results are given for “fLL-37: 5′ carboxyfluorescein coupled to the N-terminus of LL-37 [reference compound]”?
Co-localization of peptide with TLR3, in words (TLR3; with poly(I:C)): found to colocalize with TLR3; Binding to poly(I:C)/dsRNA in fluorescent polarization assay, in words (poly(I:C)): polarization increased as a function of poly(I:C) concentration
